# Reference: patent US4820821A, “Novel pyridazinone-imines and their physiologically tolerated addition salts with acids, their preparation and therapeutic agents containing these compounds” (BASF Aktiengesellschaft, priority 1981, dated 1989)
# Where a name gives a salt, the structure may show the parent alone.
# Tested on: reserpine-induced hypothermia / blood pressure
# Assay: Quotient ED 50% antidepressive action / ED 20% hypertensive action;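 on Q Increase: larger quotient means more selective hypertensive action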
# Assay type: in vivo, mouse / rat
# Details: Table 2; route of hypertensive test not given
# Text: This is evident from the fact that the quotient defined above differs wtih respect to the comparative compounds. […] This arises, inter alia, from the fact that the hypertensive ED 20 constitutes the denominator of the quotient. It is possible that the unforeseeable selective direction of action is attributable to the special substitution,in accordance with the invention, at the 4-imino group.
row,SMILES,Q Increase
1,"C=C(C)C(=O)N=c1ccn(-c2ccccc2)nc1 [Example 12, 1,4-dihydro-4-methacryloylimino-1-phenylpyridazine]",34.09
2,"O=C(N=c1ccn(-c2ccccc2)nc1)c1ccc(F)cc1 [Example 14, 1,4-dihydro-4-(4-fluorobenzoyl)-imino-1-phenylpyridazine hydrochloride]",23.81
3,"O=C(N=c1ccn(-c2ccccc2)nc1)c1ccccc1 [Example 16, 4-benzoylimino-1,4-dihydro-1-phenylpyridazine]",28.91
4,O=C(N=c1ccn(-c2ccccc2)nc1)c1ccccc1Cl [Example 17],60.00

# Same assay, conditions: compounds of Table 2
row,SMILES,factor by which the hypertensive dose (ED 20%) is smaller than the antidepressive effective dose (ED 50%)
1,"O=C(N=c1ccn(-c2ccccc2)nc1)c1ccc(F)cc1 [Example 14, 1,4-dihydro-4-(4-fluorobenzoyl)-imino-1-phenylpyridazine hydrochloride]",24

# Same assay, conditions: hypertensive test i.p.
row,SMILES,Q (quotient ED 50% antidepressive action/ED 20% hypertensive action)
1,"O=C(N=c1ccn(-c2ccccc2)nc1)c1cc(Cl)cc(Cl)c1 [Example 15, 4-(3,5-dichlorobenzoyl)-imino-1,4-dihydro-1-phenylpyridazine]",< 0.27
2,O=C(N=c1ccn(-c2ccccc2)nc1)c1ccc(Cl)cc1 [Example 19],< 0.14

# Tested on: blood pressure
# Assay: Effect on the blood pressure: hypertensive action, pithed rat
# Assay type: in vivo, male Sprague-Dawley rats
# Details: Rattus norvegicus, ip; Table 1; i.p. administration; dose based on the base; read-out: ED 20% hypertensive action (dose which increases the blood pressure of the pithed rat by 20%)
# Protocol: The measurement of the blood pressure in the carotid artery was carried out by means of Statham transducers. The substance was administered in the jugular vein (as an aqueous solution, 1 ml/kg) or intraperitoneally (as a tragacanth suspension, 2 ml/kg). The ED 20% is determined as the dose which increases the blood pressure by 20%.
row,SMILES,ED20
1,"O=C(N=c1ccn(-c2ccccc2)nc1)c1cc(Cl)cc(Cl)c1 [Example 15, 4-(3,5-dichlorobenzoyl)-imino-1,4-dihydro-1-phenylpyridazine]",> 10 mg/kg
2,O=C(N=c1ccn(-c2ccccc2)nc1)c1ccc(Cl)cc1 [Example 19],> 10 mg/kg

# Same assay, conditions: Rattus norvegicus; Table 2; route not given; dose based on the base; read-out: ED 20% hypertensive action (dose which increases the blood pressure of the pithed rat by 20%)
row,SMILES,ED20
1,"C=C(C)C(=O)N=c1ccn(-c2ccccc2)nc1 [Example 12, 1,4-dihydro-4-methacryloylimino-1-phenylpyridazine]",0.022 mg/kg
2,"O=C(N=c1ccn(-c2ccccc2)nc1)c1ccc(F)cc1 [Example 14, 1,4-dihydro-4-(4-fluorobenzoyl)-imino-1-phenylpyridazine hydrochloride]",0.042 mg/kg
3,"O=C(N=c1ccn(-c2ccccc2)nc1)c1ccccc1 [Example 16, 4-benzoylimino-1,4-dihydro-1-phenylpyridazine]",0.046 mg/kg
4,O=C(N=c1ccn(-c2ccccc2)nc1)c1ccccc1Cl [Example 17],0.046 mg/kg

# Same assay, conditions: Table 1; i.p. administration; amezinium = 1.00
row,SMILES,"R.A. (relative activity), hypertensive action"
1,"O=C(N=c1ccn(-c2ccccc2)nc1)c1cc(Cl)cc(Cl)c1 [Example 15, 4-(3,5-dichlorobenzoyl)-imino-1,4-dihydro-1-phenylpyridazine]",< 0.04
2,O=C(N=c1ccn(-c2ccccc2)nc1)c1ccc(Cl)cc1 [Example 19],< 0.04

# Same assay, conditions: Table 2; amezinium = 1.00
row,SMILES,"R.A. (relative activity), hypertensive action"
1,"C=C(C)C(=O)N=c1ccn(-c2ccccc2)nc1 [Example 12, 1,4-dihydro-4-methacryloylimino-1-phenylpyridazine]",2.27
2,"O=C(N=c1ccn(-c2ccccc2)nc1)c1ccc(F)cc1 [Example 14, 1,4-dihydro-4-(4-fluorobenzoyl)-imino-1-phenylpyridazine hydrochloride]",1.19
3,"O=C(N=c1ccn(-c2ccccc2)nc1)c1ccccc1 [Example 16, 4-benzoylimino-1,4-dihydro-1-phenylpyridazine]",1.09
4,O=C(N=c1ccn(-c2ccccc2)nc1)c1ccccc1Cl [Example 17],1.09

# Tested on: reserpine-induced hypothermia
# Assay: Antidepressive action: reserpine antagonism, inhibition of reserpine-induced hypothermia of the mouse
# Assay type: in vivo, male Swiss mice
# Details: Mus musculus; Table 1; oral administration 60 min before reserpine; dose based on the base; read-out: ED 50% (dose which inhibits the reserpine-induced hypothermia of the mouse by 50%)
# Protocol: Antidepressants effect dose-dependent inhibition of this hypotherma. The test substances are administered orally 60 minutes before the administration of reserpine.
# The dose which effects 50% inhibition of the reserpine-induced hypothermia is determined, as the ED 50%, from the linear regression between log dose (mg/kg) and relative reduction in hypothermia (Δ%).
row,SMILES,ED50
1,"O=C(N=c1ccn(-c2ccccc2)nc1)c1cc(Cl)cc(Cl)c1 [Example 15, 4-(3,5-dichlorobenzoyl)-imino-1,4-dihydro-1-phenylpyridazine]",2.7 mg/kg
2,O=C(N=c1ccn(-c2ccccc2)nc1)c1ccc(Cl)cc1 [Example 19],1.35 mg/kg

# Same assay, conditions: Mus musculus; Table 2; oral administration; dose based on the base; read-out: ED 50% (dose which inhibits the reserpine-induced hypothermia of the mouse by 50%)
row,SMILES,ED50
1,"C=C(C)C(=O)N=c1ccn(-c2ccccc2)nc1 [Example 12, 1,4-dihydro-4-methacryloylimino-1-phenylpyridazine]",0.75 mg/kg
2,"O=C(N=c1ccn(-c2ccccc2)nc1)c1ccc(F)cc1 [Example 14, 1,4-dihydro-4-(4-fluorobenzoyl)-imino-1-phenylpyridazine hydrochloride]",1 mg/kg
3,"O=C(N=c1ccn(-c2ccccc2)nc1)c1ccccc1 [Example 16, 4-benzoylimino-1,4-dihydro-1-phenylpyridazine]",1.33 mg/kg
4,O=C(N=c1ccn(-c2ccccc2)nc1)c1ccccc1Cl [Example 17],2.76 mg/kg

# Same assay, conditions: Table 1; amezinium = 1.00; oral
row,SMILES,"R.A. (relative activity), reserpine antagonism"
1,"O=C(N=c1ccn(-c2ccccc2)nc1)c1cc(Cl)cc(Cl)c1 [Example 15, 4-(3,5-dichlorobenzoyl)-imino-1,4-dihydro-1-phenylpyridazine]",0.27
2,O=C(N=c1ccn(-c2ccccc2)nc1)c1ccc(Cl)cc1 [Example 19],0.54

# Same assay, conditions: Table 2; amezinium = 1.00; oral
row,SMILES,"R.A. (relative activity), reserpine antagonism"
1,"C=C(C)C(=O)N=c1ccn(-c2ccccc2)nc1 [Example 12, 1,4-dihydro-4-methacryloylimino-1-phenylpyridazine]",0.98
2,"O=C(N=c1ccn(-c2ccccc2)nc1)c1ccc(F)cc1 [Example 14, 1,4-dihydro-4-(4-fluorobenzoyl)-imino-1-phenylpyridazine hydrochloride]",0.73
3,"O=C(N=c1ccn(-c2ccccc2)nc1)c1ccccc1 [Example 16, 4-benzoylimino-1,4-dihydro-1-phenylpyridazine]",0.55
4,O=C(N=c1ccn(-c2ccccc2)nc1)c1ccccc1Cl [Example 17],0.27
